Results: PubChem BioAssay AID264 (DTP/NCI, 2004)
Where “and” joins values, the source holds several entries; their conditions need not be identical. Identical values can stand only once. Inconclusive results are not listed.

System: nude mice, LX-1 lung xenograft intrarenal, tumor weight T/C
Assay: NCI In Vivo Anticancer Drug Screen. Data for tumor model Human Lung LX-1 Xenograft (intrarenal inoculation) in NU/NU Swiss (nude) mice
Conditions: endpoint: mean tumor weight change, higher = larger tumour
Procedure, shortened: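 In vivo, transplantable tumor; compound vs vehicle arms; tumor size measured; value = T/C.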

[1] = dose: 100.0 mg/kg/injection, schedule: Q04DX003 (sc), vehicle: Klucel (hydroxypropylcellulose) (HPC)
[2] = dose: 200.0 mg/kg/injection, schedule: Q04DX003 (sc), vehicle: Klucel (hydroxypropylcellulose) (HPC)
[3] = dose: 400.0 mg/kg/injection, schedule: Q04DX003 (sc), vehicle: Klucel (hydroxypropylcellulose) (HPC)
[4] = dose: 300.0 mg/kg/injection, schedule: Q04DX003 (sc), vehicle: saline with Tween-80
[5] = dose: 1200.0 mg/kg/injection, schedule: Q04DX003 (sc), vehicle: saline with Tween-80
[6] = dose: 2400.0 mg/kg/injection, schedule: Q04DX003 (sc), vehicle: saline with Tween-80
[7] = dose: 50.0 mg/kg/injection, schedule: Q01DX010 (sc), vehicle: saline with Tween-80
[8] = dose: 100.0 mg/kg/injection, schedule: Q01DX010 (sc), vehicle: saline with Tween-80
[9] = dose: 400.0 mg/kg/injection, schedule: Q01DX010 (sc), vehicle: saline with Tween-80
[10] = dose: 75.0 mg/kg/injection, schedule: Q04DX003 (sc), vehicle: water
[11] = dose: 150.0 mg/kg/injection, schedule: Q04DX003 (sc), vehicle: water
[12] = dose: 50.0 mg/kg/injection, schedule: Q01DX010 (sc), vehicle: Klucel (hydroxypropylcellulose) (HPC)
[13] = dose: 800.0 mg/kg/injection, schedule: Q01DX010 (sc), vehicle: saline
[14] = dose: 1600.0 mg/kg/injection, schedule: Q01DX010 (sc), vehicle: saline
[15] = dose: 150.0 mg/kg/injection, schedule: Q04DX003 (sc), vehicle: Klucel (hydroxypropylcellulose) (HPC)
[16] = dose: 300.0 mg/kg/injection, schedule: Q04DX003 (sc), vehicle: Klucel (hydroxypropylcellulose) (HPC)
[17] = dose: 600.0 mg/kg/injection, schedule: Q04DX003 (sc), vehicle: Klucel (hydroxypropylcellulose) (HPC)
[18] = dose: 1200.0 mg/kg/injection, schedule: Q04DX003 (sc), vehicle: Klucel (hydroxypropylcellulose) (HPC)
[19] = dose: 200.0 mg/kg/injection, schedule: Q01DX010 (sc), vehicle: Klucel (hydroxypropylcellulose) (HPC)
[20] = dose: 400.0 mg/kg/injection, schedule: Q01DX010 (sc), vehicle: Klucel (hydroxypropylcellulose) (HPC)
[21] = dose: 800.0 mg/kg/injection, schedule: Q01DX010 (sc), vehicle: Klucel (hydroxypropylcellulose) (HPC)

Compound: O=[N+]([O-])c1ccc(-n2[nH]nnc2=S)cc1
- T/C (dose: 50.0 mg/kg/injection, schedule: Q04DX003 (sc), vehicle: Klucel (hydroxypropylcellulose) (HPC)): 92 % of control
- T/C [1]: 84 % of control
- T/C [2]: 95 % of control
- T/C [3]: 59 % of control

Compound: ClC(Cl)(Cl)C1=NCc2nnn(Cc3ccccc3)c2N1
- T/C [4]: 72 % of control
- T/C (dose: 600.0 mg/kg/injection, schedule: Q04DX003 (sc), vehicle: saline with Tween-80): 67 % of control
- T/C [5]: 90 % of control
- T/C [6]: 36 % of control

Compound: C1=CCOCOC1
- T/C [7]: 83 % of control
- T/C [8]: 105 % of control
- T/C (dose: 200.0 mg/kg/injection, schedule: Q01DX010 (sc), vehicle: saline with Tween-80): 81 % of control
- T/C [9]: 46 % of control

Compound: C[C@@](O)(/C=C/[C@H]1CC=CC(=O)O1)[C@@H](C[C@@H](O)\C=C/C=C\C=C\CO)OP(=O)(O)O
- T/C (dose: 7.5 mg/kg/injection, schedule: Q04DX003 (sc), vehicle: other): 160 % of control
- T/C (dose: 15.0 mg/kg/injection, schedule: Q04DX003 (sc), vehicle: other): 168 % of control

Compound: c1ccc2c(c1)nnn1c3cnccc3nc21
- T/C (dose: 3.12 mg/kg/injection, schedule: Q01DX010 (sc), vehicle: saline with Tween-80): 59 % of control
- T/C (dose: 6.25 mg/kg/injection, schedule: Q01DX010 (sc), vehicle: saline with Tween-80): 187 % of control
- T/C (dose: 12.5 mg/kg/injection, schedule: Q01DX010 (sc), vehicle: saline with Tween-80): 72 % of control
- T/C (dose: 25.0 mg/kg/injection, schedule: Q01DX010 (sc), vehicle: saline with Tween-80): 107 % of control
- T/C [7]: 160 % of control
- T/C [8]: 210 % of control

Compound: COc1cc(NCc2ccc3nc(N)nc(N)c3c2C)cc(OC)c1OC
- T/C (dose: 1.25 mg/kg/injection, schedule: Q01DX010 (sc), vehicle: sodium bicarbonate): 76 % of control
- T/C (dose: 2.5 mg/kg/injection, schedule: Q01DX010 (sc), vehicle: sodium bicarbonate): 81 % of control
- T/C (dose: 5.0 mg/kg/injection, schedule: Q01DX010 (sc), vehicle: sodium bicarbonate): 36 % of control
- T/C [10]: 77 % of control
- T/C [11]: 67 % of control

Compound: CNC(=O)OCc1c(COC(=O)NC)c(-c2ccc(Cl)c(Cl)c2)n2c1Cc1ccccc1C2
- T/C (dose: 150.0 mg/kg/injection, schedule: Q04DX003 (sc), vehicle: distilled water + Tween-80): 97 % of control
- T/C (dose: 300.0 mg/kg/injection, schedule: Q04DX003 (sc), vehicle: distilled water + Tween-80): 71 % of control
- T/C (dose: 600.0 mg/kg/injection, schedule: Q04DX003 (sc), vehicle: distilled water + Tween-80): 58 % of control
- T/C (dose: 1200.0 mg/kg/injection, schedule: Q04DX003 (sc), vehicle: distilled water + Tween-80): 54 % of control

Compound: CN(C)N=Nc1ccccc1
- T/C (dose: 12.5 mg/kg/injection, schedule: Q01DX010 (sc), vehicle: Klucel (hydroxypropylcellulose) (HPC)): 12 % of control
- T/C [12]: -98 % of control

Compound: COc1ccc(OC)c(Cc2cnc3nc(N)nc(N)c3c2C)c1
- T/C [10]: 82 % of control
- T/C [11]: 80 % of control
- T/C (dose: 300.0 mg/kg/injection, schedule: Q04DX003 (sc), vehicle: water): 94 % of control
- T/C (dose: 600.0 mg/kg/injection, schedule: Q04DX003 (sc), vehicle: water): 94 % of control

Compound: CO[C@@H]1[C@H](O)CC[C@]2(CO2)[C@H]1[C@@]1(C)O[C@@H]1CC=C(C)C
- T/C (dose: 150.0 mg/kg/injection, schedule: Q04DX003 (sc), vehicle: suspension in saline): 79 % of control
- T/C (dose: 300.0 mg/kg/injection, schedule: Q04DX003 (sc), vehicle: suspension in saline): 90 % of control
- T/C (dose: 600.0 mg/kg/injection, schedule: Q04DX003 (sc), vehicle: suspension in saline): 63 % of control
- T/C (dose: 1200.0 mg/kg/injection, schedule: Q04DX003 (sc), vehicle: suspension in saline): 63 % of control

Compound: CSc1nc(=O)[nH]nc1SCc1ccccc1
- T/C [1]: 101 % of control
- T/C [2]: 93 % of control
- T/C [3]: 64 % of control
- T/C (dose: 800.0 mg/kg/injection, schedule: Q04DX003 (sc), vehicle: Klucel (hydroxypropylcellulose) (HPC)): 68 % of control

Compound: CN1c2c(nc(N)[nH]c2=O)NCC1CCNc1ccc(C(=O)NC(CCC(=O)O)C(=O)O)cc1 (stereo not given)
- T/C (dose: 100.0 mg/kg/injection, schedule: Q01DX010 (sc), vehicle: saline): 82 % of control
- T/C (dose: 200.0 mg/kg/injection, schedule: Q01DX010 (sc), vehicle: saline): 36 % of control and 41 % of control
- T/C (dose: 400.0 mg/kg/injection, schedule: Q01DX010 (sc), vehicle: saline): 11 % of control and 36 % of control
- T/C [13]: 11 % of control
- T/C [14]: 27 % of control

Compound: O=c1oc2c(O)c(O)cc3c(=O)oc4c(O)c(O)cc1c4c23
- T/C [15]: 215 % of control
- T/C [16]: 86 % of control
- T/C [17]: 88 % of control
- T/C [18]: 81 % of control

Compound: S=c1[nH]cc2cnccn12
- T/C [4]: 151 % of control
- T/C [5]: 83 % of control
- T/C [6]: 94 % of control

Compound: O=C(Nc1ccc(Cl)c(Cl)c1)Nc1c(Oc2ccc(Cl)c(Cl)c2)ccc(Cl)c1S(=O)(=O)O
- T/C (dose: 100.0 mg/kg/injection, schedule: Q01DX010 (sc), vehicle: Klucel (hydroxypropylcellulose) (HPC)): 43 % of control
- T/C [19]: 50 % of control
- T/C [20]: 69 % of control
- T/C [21]: 60 % of control

Compound: Clc1ccc(C(c2ccccc2Cl)C(Cl)Cl)cc1 (stereo not given)
- T/C [9]: 80 % of control
- T/C (dose: 800.0 mg/kg/injection, schedule: Q01DX010 (sc), vehicle: saline with Tween-80): 40 % of control
- T/C [13]: 69 % of control
- T/C (dose: 1600.0 mg/kg/injection, schedule: Q01DX010 (sc), vehicle: saline with Tween-80): 56 % of control
- T/C [14]: 55 % of control
- T/C (dose: 3200.0 mg/kg/injection, schedule: Q01DX010 (sc), vehicle: saline with Tween-80): 24 % of control
- T/C (dose: 3200.0 mg/kg/injection, schedule: Q01DX010 (sc), vehicle: saline): 80 % of control
- T/C (dose: 6400.0 mg/kg/injection, schedule: Q01DX010 (sc), vehicle: saline): 73 % of control

Compound: COc1cc(C(=O)c2cc3c(cc2C)OCO3)cc(OC)c1OC
- T/C [15]: 78 % of control
- T/C [16]: 71 % of control
- T/C [17]: 80 % of control
- T/C [18]: 82 % of control

Compound: CC[N](CC)[Ge]([CH2]C)[CH2]C.CC[N](CC)[Ge]([CH2]C)[CH2]C
- T/C (dose: 12.5 mg/kg/injection, schedule: Q01DX010 (sc), vehicle: suspension in saline): 67 % of control
- T/C (dose: 25.0 mg/kg/injection, schedule: Q01DX010 (sc), vehicle: suspension in saline): 89 % of control
- T/C (dose: 50.0 mg/kg/injection, schedule: Q01DX010 (sc), vehicle: suspension in saline): 77 % of control

Compound: O=C([CH-]C(=O)C(F)(F)F)c1ccccc1.O=C([CH-]C(=O)C(F)(F)F)c1ccccc1.O=C([CH-]C(=O)C(F)(F)F)c1ccccc1.O=C([CH-]C(=O)C(F)(F)F)c1ccccc1.[Eu+3].c1ccncc1
- T/C [12]: 85 % of control
- T/C [19]: 49 % of control
- T/C [20]: 40 % of control
- T/C [21]: 65 % of control

Compound: O=C1C(NCC(O)CO)=C(N2CC2)C(=O)C(NCC(O)CO)=C1N1CC1 (stereo not given)
- T/C (dose: 4.0 mg/kg/injection, schedule: Q04DX003 (ip), vehicle: saline): 102 % of control
- T/C (dose: 8.0 mg/kg/injection, schedule: Q04DX003 (ip), vehicle: saline): 84 % of control
- T/C (dose: 16.0 mg/kg/injection, schedule: Q04DX003 (ip), vehicle: saline): 61 % of control
- T/C (dose: 32.0 mg/kg/injection, schedule: Q04DX003 (ip), vehicle: saline): 50 % of control

Compound: ClC1=C(Cl)C(Cl)=C(Cl)C1=Cc1ccccc1
- T/C (dose: 50.0 mg/kg/injection, schedule: Q04DX003 (sc), vehicle: saline with Tween-80): 96 % of control
- T/C (dose: 200.0 mg/kg/injection, schedule: Q04DX003 (sc), vehicle: saline with Tween-80): 91 % of control
- T/C (dose: 400.0 mg/kg/injection, schedule: Q04DX003 (sc), vehicle: saline with Tween-80): 105 % of control
